Measured values reported in ChEMBL document CHEMBL1949584, “Design and synthesis of novel inhibitors of human kynurenine aminotransferase-I” (Bioorg Med Chem Lett, 2012).

Tests used:
[1] = target: T1, Kynurenine--oxoglutarate transaminase 1 (Homo sapiens, UniProt Q16773); test: Inhibition of human recombinant KAT1 after 20 mins by RP-HPLC analysis
T1 sequence (Q16773 whole entry): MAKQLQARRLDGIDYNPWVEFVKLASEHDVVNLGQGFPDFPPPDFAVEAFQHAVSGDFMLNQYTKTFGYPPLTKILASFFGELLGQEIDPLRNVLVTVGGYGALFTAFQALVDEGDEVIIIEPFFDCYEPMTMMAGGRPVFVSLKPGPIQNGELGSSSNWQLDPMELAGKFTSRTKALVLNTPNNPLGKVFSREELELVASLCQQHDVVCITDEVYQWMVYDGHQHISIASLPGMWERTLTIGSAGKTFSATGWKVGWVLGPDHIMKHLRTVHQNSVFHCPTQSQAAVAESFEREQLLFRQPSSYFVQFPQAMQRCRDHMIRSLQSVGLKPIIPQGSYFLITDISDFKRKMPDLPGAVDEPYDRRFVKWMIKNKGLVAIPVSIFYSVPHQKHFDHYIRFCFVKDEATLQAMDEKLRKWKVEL

[2] = target: T2, Kynurenine--oxoglutarate transaminase 1 (Homo sapiens) (UniProt Q16773); test: Ratio of compound IC50 to indole-3-propionic acid IC50 for human recombinant KAT1
T2 sequence (whole entry): T1 sequence (Q16773 whole entry)

Compound	IC50 [1] [µM]	Ratio IC50 [2]
CCOC(=O)/C(CCCC(=O)O)=N\Nc1ccc([N+](=O)[O-])cc1	179	
CCOC(=O)/C(CCCC(=O)O)=N\Nc1cccc(Cl)c1	20	7
COc1ccc2[nH]c(C(=O)O)c(CCC(=O)O)c2c1	> 6000	
CCOC(=O)/C(CCCC(=O)O)=N\Nc1ccc(OC)cc1	43	
CCOC(=O)/C(CCCC(=O)O)=N\Nc1ccc(C)cc1	33	
Cc1ccc2[nH]c(C(=O)O)c(CCC(=O)O)c2c1	> 1000	
O=C(O)CCc1c(C(=O)O)[nH]c2ccc(Cl)cc12	293	
O=C(O)CCc1c(C(=O)O)[nH]c2ccc(Br)cc12	271	
CCOC(=O)/C(CCCC(=O)O)=N\Nc1ccc(Br)cc1	21	
O=C(O)CCc1c(C(=O)O)[nH]c2ccc([N+](=O)[O-])cc12	666	
CCOC(=O)/C(CCCC(=O)O)=N\Nc1ccc(Cl)cc1	20	7
CCOC(=O)/C(CCCC(=O)O)=N\Nc1ccc(I)cc1	34	
